# Measurements from ChEMBL document CHEMBL3425423, “Hydroxy tricyclic 1,5-naphthyridinone oxabicyclooctane-linked novel bacterial topoisomerase inhibitors as broad-spectrum antibacterial agents-SAR of RHS moiety (Part-3)” (Bioorg Med Chem Lett, 2015).
# Columns and labels:
# Type in all cases: functional
# Enterococcus faecalis = experiment: Antibacterial activity against Enterococcus faecalis ATCC 29212
# Enterococcus faecium = experiment: Antibacterial activity against VanA-type vancomycin-resistant Enterococcus faecium A2373
# Escherichia coli = experiment: Antibacterial activity against Escherichia coli ATCC 25922
# Pseudomonas aeruginosa = experiment: Antibacterial activity against Pseudomonas aeruginosa PAO1
# Moraxella catarrhalis = experiment: Antibacterial activity against Moraxella catarrhalis ATCC 25238
# Streptococcus pneumoniae = experiment: Antibacterial activity against Streptococcus pneumoniae IID554
# Staphylococcus aureus [1] = experiment: Antibacterial activity against Staphylococcus aureus Smith
# Haemophilus influenzae = experiment: Antibacterial activity against Haemophilus influenzae ATCC 49247
# Acinetobacter baumannii = experiment: Antibacterial activity against Acinetobacter baumannii IID876
# Staphylococcus aureus [2] = experiment: Ratio of MIC for quinolone-resistant Staphylococcus aureus MS5935 to MIC for quinolone-sensitive Staphylococcus aureus
# [3] = Streptococcus pneumoniae, IID554, read-out: MIC
# [4] = Staphylococcus aureus, Smith, read-out: MIC
# [5] = Enterococcus faecalis, ATCC 29212, read-out: MIC
# [6] = Enterococcus faecium, A2373, read-out: MIC
# [7] = Escherichia coli, ATCC 25922, read-out: MIC
# [8] = Pseudomonas aeruginosa, PAO1, read-out: MIC
# [9] = Moraxella catarrhalis, ATCC 25238, read-out: MIC
# [10] = Haemophilus influenzae, ATCC 49247, read-out: MIC
# [11] = Acinetobacter baumannii, IID876, read-out: MIC
SMILES,MIC (Enterococcus faecalis) [µg/mL],MIC (Enterococcus faecium) [µg/mL],MIC (Escherichia coli) [µg/mL],MIC (Pseudomonas aeruginosa) [µg/mL],MIC (Moraxella catarrhalis) [µg/mL],MIC (Streptococcus pneumoniae; [3]) [µg/mL],MIC (Staphylococcus aureus [1]; [4]) [µg/mL],MIC (Haemophilus influenzae) [µg/mL],MIC (Acinetobacter baumannii) [µg/mL],MIC (Enterococcus faecalis; [5]) [µg/mL],MIC (Enterococcus faecium; [6]) [µg/mL],MIC (Escherichia coli; [7]) [µg/mL],MIC (Pseudomonas aeruginosa; [8]) [µg/mL],MIC (Moraxella catarrhalis; [9]) [µg/mL],MIC (Haemophilus influenzae; [10]) [µg/mL],MIC (Acinetobacter baumannii; [11]) [µg/mL],Ratio (Staphylococcus aureus [2]),MIC (Streptococcus pneumoniae) [µg/mL],MIC (Staphylococcus aureus [1]) [µg/mL]
CC1COc2cnc(CNC34CCC(C[C@]5(O)Cn6c(=O)ccc7ncc(F)c5c76)(CC3)OC4)cc2O1 (stereo in doubt; 22),32,32,32,32,32,4,4,32,32,,,,,,,,,,
O=c1ccc2ncc(F)c3c2n1C[C@@]3(O)CC12CCC(NCc3ncc4c(n3)OCCO4)(CC1)CO2,,,,,,4,8,,,32,32,32,32,32,32,32,,,
O=c1ccc2ncc(F)c3c2n1C[C@@]3(O)CC12CCC(NCCCc3cc(F)ccc3F)(CC1)CO2,,,,,,1,0.5,,,16,32,16,32,,,2,<4,,
CN1CCOc2nc(CNC34CCC(C[C@]5(O)Cn6c(=O)ccc7ncc(F)c5c76)(CC3)OC4)ccc21,,,,,,4,2,,,16,16,16,16,,,16,<4,,
COc1ccc2nc(CNC34CCC(C[C@]5(O)Cn6c(=O)ccc7ncc(F)c5c76)(CC3)OC4)c(F)cc2n1,,,,,,16,16,,,16,16,16,16,,,16,<4,,
CC1COc2cnc(CNC34CCC(C[C@]5(O)Cn6c(=O)ccc7ncc(F)c5c76)(CC3)OC4)cc2O1 (stereo in doubt; 21),,,,,,,,,,16,32,32,32,32,32,32,,2,4
O=c1cnc2ccc(CNC34CCC(C[C@]5(O)Cn6c(=O)ccc7ncc(F)c5c76)(CC3)OC4)nc2[nH]1,,,,,,16,8,,,32,32,32,32,,,32,<4,,
Cn1c(=O)c(CNC23CCC(C[C@]4(O)Cn5c(=O)ccc6ncc(F)c4c65)(CC2)OC3)cc2ccccc21,,,,,,8,16,,,64,64,64,64,,,64,<4,,
O=c1ccc2ncc(F)c3c2n1C[C@@]3(O)CC12CCC(NCc3cc4c(cn3)SCCO4)(CC1)CO2,,,,,,0.25,0.12,,,2,4,16,32,0.5,8,2,,,
O=c1ccc2ncc(F)c3c2n1C[C@@]3(O)CC12CCC(NC/C=C/c3ccccn3)(CC1)CO2,,,,,,4,1,,,32,64,64,64,,,32,<4,,
O=c1ccc2ncc(F)c3c2n1C[C@@]3(O)CC12CCC(NCc3c(Cl)cc4c(c3Cl)OCCO4)(CC1)CO2,,,,,,4,4,,,16,32,32,32,32,32,32,,,
N#Cc1c(CNC23CCC(C[C@]4(O)Cn5c(=O)ccc6ncc(F)c4c65)(CC2)OC3)ncc2c1OCCO2,,,,,,32,8,,,32,32,32,32,32,32,32,,,
O=c1ccc2ncc(F)c3c2n1C[C@@]3(O)CC12CCC(NCc3cc4c(cn3)OCCS4)(CC1)CO2,,,,,,0.5,0.25,,,2,8,32,32,1,8,4,,,
O=c1ccc2ncc(F)c3c2n1C[C@@]3(O)CC12CCC(NCc3cc4c(cn3)OCCC4)(CC1)CO2,,,,,,0.5,0.13,,,4,16,16,32,,4,4,,,
O=c1ccc2ncc(F)c3c2n1C[C@@]3(O)CC12CCC(NCc3cc4c(c(Cl)c3Cl)OCCO4)(CC1)CO2,,,,,,4,1,,,8,32,32,32,0.5,32,32,,,
